Tests used:
rats [1] = details: rat, in vivo
rats [2] = details: rat; pretreatment quetiapine 10 mg/kg i.p.; heroin 0.032 mg/kg/infusion i.v., five lever presses per infusion; FIG. 2

Structure (SMILES)	average tail flick latency (rats [1])	median tail flick latency (rats [1])	self-administration (reinforcing effect) of heroin (rats [2])
COc1ccc2c3c1O[C@H]1C(=O)CC[C@@]4(O)[C@@H](C2)N(C)CC[C@]314 [oxycodone]	about 7.3 seconds	~5.8 s	
OCCOCCN1CCN(C2=Nc3ccccc3Sc3ccccc32)CC1 [quetiapine]			decreased

— patent US20190117637A1 (priority 2016, published 2019)
